≈ marks a conversion by molar mass, not a printed value.

Assay [1] relates to methicillin-resistant Staphylococcus aureus (MRSA). The note with it: in vitro growth of MRSA; cited from earlier work.
The test system of assay [2] is VAN-resistant S. aureus (VRSA). The note with it: against VRSA; cited from earlier work.
The subject of a further assay is Staphylococcus spp. In words: Antistaphylococcal activity, summary of broth microdilution MICs. The format is cell-based.
The test system of another assay is Micrococcus luteus SK58. Briefly: microbe, parasite or virus in culture. The format is cell-based.
Another assay relates to MRSA COL. Briefly: microbe, parasite or virus in culture. The note with it: Staphylococcus aureus, 20 h.
Setting [3] is: range over staphylococcal strains of Table 1.
Where [4] appears, read: range over staphylococcal strains, converted from μM.

In the case of `CCN(CC)C(=S)SSC(=S)N(CC)CC` [disulfiram], in assay [1], the “minimum inhibitory concentration (MIC) range” value is 4 to 32 µg/mL. Also, the “interaction with vancomycin (VAN)” value in assay [2] was “synergism”.
Turning to `CCCCCCCCSSC(=S)N(CC)CC` [1j, 1-[(diethylcarbamothioyl)disulfanyl]octane], the “MIC range, antistaphylococcal activity” value with Staphylococcus spp. (setting [3]) was in the range of 2 to 4 µM; against Staphylococcus spp. (setting [4]) it was 0.6 to 1.2 µg/mL. Further, in the assay on Micrococcus luteus SK58, the MIC was > 32 µM.
Take `CCCCCCCSSC(=S)N(CC)CC` [1i]: the “MIC range, antistaphylococcal activity” value is 2 to 4 µM against Staphylococcus spp. (setting [3]) and 0.6 to 1.2 µg/mL in the assay on Staphylococcus spp. (setting [4]).
As for `CN[C@H](CC(C)C)C(=O)N[C@H]1C(=O)N[C@@H](CC(N)=O)C(=O)N[C@H]2C(=O)N[C@H]3C(=O)N[C@H](C(=O)N[C@H](C(=O)O)c4cc(O)cc(O)c4-c4cc3ccc4O)[C@H](O)c3ccc(c(Cl)c3)Oc3cc2cc(c3O[C@@H]2O[C@H](CO)[C@@H](O)[C@H](O)[C@H]2O[C@H]2C[C@](C)(N)[C@H](O)[C@H](C)O2)Oc2ccc(cc2Cl)[C@H]1O` [vancomycin], the MIC against MRSA COL amounted to 2 µg/mL (≈ 1.38 µM).

(Values after PMC5893419 (Bioorganic & medicinal chemistry letters, 2018).)
